Data set [1] concerns patient with early onset Alzheimer's disease. In words: Case report Example 4: patient with early onset Alzheimer's disease, anxiety and depressed mood. The following applies: for adverse effect leading to discontinuation: human, in vivo.
In data set [2] the test system is patient with depressed mood, lack of pleasure and absent initiative. In words: Case report Example 6: depressed mood, lack of pleasure and absent initiative in a retired nurse. Format: in vivo, human. How it is done: A 75 year retired nurse lived independently in the community until 2 months prior to admission.
Moclobemide was commenced at 200 mg. daily on day 4, increased to 300 mg. daily and day 6 and continued at 300 mg. daily.
Risperidone was commenced at 0.5 mg daily on day 7, discontinued on day 14 then restarted at 0.5 mg daily alternating with 0.25 mg. daily and continued as such.

Data set [3] has as its system apathy in a patient with Parkinson's disease. In words: Case report Example 5: severe apathy in a patient with Parkinson's disease. The format is in vivo, human. The note with it: before admission to hospital. The text has this: A person retired sailor developed Parkinson's disease more than 5 years before admission to hospital. After the onset of Parkinson's disease they developed decreased motivation and decreased interest. The severity of the apathy progressed to a near total lack of initiative. A trial of methylphenidate for apathy was unsuccessful. They were admitted to hospital with anxiety, severe apathy and constipation. They were unable to function at home leading to caregiver burn out.
Core symptoms of delirium were absent. A shuffling gait devoid of heel strike or toe push was observed. Arm swing was decreased. This person described decreased motivation in face of clear enjoyment of family visits and the sunshine outside. Their capacity for projective pleasure was preserved. They were satisfied with their accomplishments over their life. They felt their quality of life was reduced by their lack initiative. Objective mood and affect were flat. Thought form was marked by latency but progressed logically to a goal oriented conclusion. Thought content was free of delusions or hallucinations. Language was mildly impaired with paraphasic errors noted. Remote memories were difficult to recall and approximately correct. Their sense of humor and capacity for abstraction were preserved.
This was judged consistent with Parkinson's disease by the registered psychologist.
They could walk four lengths of the hallway. […]

On to `Cc1nc2n(c(=O)c1CCN1CCC(c3noc4cc(F)ccc34)CC1)CCCC2` [risperidone, 3-[2-[4-(6-fluoro-1,2-benzisoxazol-3-yl)piperidino]ethyl]-2-methyl-6,7,8,9-tetrahydro-4H-pyrido-[1,2-a]pyrimidin-4-one], for which the “adverse effect leading to discontinuation” value in data set [1] was “emergence of dystonia”. Moreover, in data set [2] (shortly after Day 13, risperidone 0.5 mg daily), the extrapyramidal side effects entry was “mild extrapyramidal symptoms emerged”.
For the compound `COc1ccc(C(CN(C)C)C2(O)CCCCC2)cc1` (stereo not drawn) [venlafaxine], the “adverse effect leading to discontinuation” value in data set [1] is “excessive sweating”. For the same compound, in data set [1] (venlafaxine 150 mg daily, donepezil 10 mg daily commenced), the depressed mood result is recorded as “responded”.
For the compound `O=C(NCCN1CCOCC1)c1ccc(Cl)cc1` [moclobemide, p-chloro-N-(2-morpholinoethyl) benzamide], in data set [2] (by Day 6, moclobemide 200 mg daily from day 4, 300 mg daily from day 6, before risperidone), the “late afternoon quality of mood and mobility of affect” value is recorded as “improved”.
Take `COC(=O)C(c1ccccc1)C1CCCCN1` (stereo not drawn) [methylphenidate]: the trial for apathy result in data set [3] is “unsuccessful”.

The values above are taken from patent publication US8703764B2, “Combination therapy for dementia, depression and apathy” (priority 2003, dated 2014).
